Measurements published in patent US20230416684A1, “COMPOSITION FOR PREVENTING OR TREATING MUSCLE DISEASES, CONTAINING STEM CELLS IN WHICH GRO-ALPHA IS EXPRESSED OR GRO-ALPHA” (SAMSUNG LIFE PUBLIC WELFARE FOUNDATION, priority 2020, published 2023).

Columns and labels:
C2C12 cells [1] = test: Cell morphology and cell viability of lovastatin death-induced C2C12 cells treated with GSK′872 and GRO-α individually or in combination; assay type: cell-based, mouse; conditions: GRO-α 200 μg/mL; for cell proliferation (cell morphology) / cell viability: GSK 3 μm pretreatment 3 hours; for cell proliferation (cell morphology): cultured for 48, FIG. 5A; for cell viability: cultured for 48, FIG. 5B
Protocol: Inhibitory effects of GSK′827 and GRO-α, known as […] that block the RIP-3 pathway, on cell death of skeletal muscle myoblasts were compared. In detail, skeletal muscle myoblasts of the cell death-induced mouse by lovastatin treatment were pretreated with 3 μm of GSK′827 for 3 hours, followed by washing with 1×PBS. The medium was replaced by a serum-free medium, and GRO-α was diluted therein to a final concentration of […]/mL. Then, the cells were treated with GRO-α and GSK′827 individually or in combination, followed by culturing for 48 to observe the cell morphology.

C2C12 cells [2] = test: Cell morphology and cell viability of lovastatin death-induced C2C12 cells treated with GRO-α at different concentrations; assay type: cell-based, mouse
phospho-RIP3 = test: Western blot of phospho-RIP3 in muscles of MDX mouse injected with WJ-MSCs or GRO-α; assay type: in vivo; conditions: muscles of MDX mouse after injection; protein level, FIG. 6C
Protocol: (§1) Based on the results of Examples 1 to 3, the efficacy of GRO-α on prevention or treatment of muscle diseases was confirmed in an MDX mouse (a mouse model for duchenne muscular dystrophy). In detail, the MDX mouse was intravenously and intraperitoneally injected with each of WJ-MSC and GRO-α. After one week, blood was collected from the heart of the mouse, centrifuged at 15,500×g for 10 minutes to separate serum, and then, activity of creatine kinase was measured.
(§2) The expression levels of necrosis markers in muscles of the […] injected with WJ-MSCs and GRO-α were confirmed in Example 4-1. In detail, the muscle tissue of the mouse was ground with liquid nitrogen into a minimum size in a mortar, added to an E-tube, and then subjected to sonication with lysis buffer (urea+RIPA=1:1). Afterwards, the supernatant was collected, and proteins in the tissue were quantified according to the Bradford assay (Bio-rad, USA). Then, proteins were detected by using western blot.

[3] = tested on: MDX mouse (a mouse model for duchenne muscular dystrophy); test: Activity of creatine kinase in serum of MDX mouse injected with WJ-MSC or GRO-α; assay type: in vivo; conditions: intravenous and intraperitoneal injection, serum after one week, FIG. 6A
Protocol: as §1

[4] = tested on: necrosis markers in C2C12 cells; test: Western blotting of necrosis markers in lovastatin death-induced C2C12 cells treated with GSK′872 and GRO-α individually or in combination; assay type: cell-based, mouse; conditions: FIGS. 5C and 5D
phospho-MLKL = test: Western blot of phospho-MLKL in muscles of MDX mouse injected with WJ-MSCs or GRO-α; assay type: in vivo; conditions: muscles of MDX mouse after injection; protein level, FIG. 6B
Protocol: as §1, §2

[5] = tested on: necrosis markers in C2C12 cells; test: Western blotting of necrosis markers in lovastatin death-induced C2C12 cells treated with GRO-α at different concentrations; assay type: cell-based, mouse; conditions: FIGS. 4C and 4D
Protocol: To confirm the inhibitory effects of the PL-MSCs and WJ-MSCs on the cell death, apoptosis markers and necrosis markers expressed in the mouse skeletal muscle myoblasts were confirmed by western blotting. In detail, after collecting the cells and breaking the cell membrane by using a buffer in which RIPA buffer and urea buffer were mixed at a ratio of 1:1, centrifugation was performed thereon, and the supernatant thus obtained was collected and subjected to the Bradford assay (Bio-rad, USA) to quantify proteins in the cells. After loading 20 μg of the proteins of from each sample on a gel, electrophoresis was performed on the gel by using SDS. After transferring the proteins to a polyvinylidene fluoride (PVDF) membrane, a 1× tris-buffered saline with 0.1% Tween 20 (TBST) solution to which 5% skimmed milk (BD Difco, USA) was added, followed by culturing at room temperature for 1 hour. Afterwards, the proteins were treated with PARP (1:1000, Cell signaling, USA), cleaved caspase-3 (1:1000, Cell signaling, USA), phospho-RIP3 (1:1000, Cell signaling, USA), and phospho-MLKL (1:1000, Cell signaling, USA) and beta actin (1:5000; Santa Cruz, USA) antibodies, followed by culturing overnight at 4° C. Next, the proteins were treated with secondary antibodies (anti-Rabbbit IgG-HRP; ABCIon, Korea) at room temperature for 1 hour, and blots were developed by using ECL (Bio-rad, USA). […]

| Molecule | cell proliferation (cell morphology) (C2C12 cells [1]) | cell viability (C2C12 cells [1]) | cell viability, among concentration groups (C2C12 cells [2]; group treated with 100 ng/mL of GRO-α, FIG. 4B) | cell proliferation rate (C2C12 cells [2]; lovastatin death-induced C2C12 cells treated with GRO-α, FIG. 4A) | cell viability (C2C12 cells [2]; lovastatin death-induced C2C12 cells, after 24 hours of treatment with GRO-α, FIG. 4B) | expression of phospho-RIP3, decrease (phospho-RIP3) | cell viability compared to the group treated with GSK′872 (C2C12 cells [1]; FIG. 5B) | activity of creatine kinase, decrease [3] | inhibitory effect on the expression of necrosis markers compared to GSK′872 [4] | expression of markers involved in necrosis compared to the control group ([4]; GRO-α 200 μg/mL) | expression of phospho-MLKL, decrease (phospho-MLKL) | expression of necrosis markers [5] |
| --- | --- | --- | --- | --- | --- | --- | --- | --- | --- | --- | --- | --- |
| CC(C)S(=O)(=O)c1ccc2nccc(Nc3ccc4scnc4c3)c2c1 [GSK′872, reference compound] | proliferated | significant increase | – | – | – | – | – | – | – | – | – | – |
| growth-regulated oncogene-alpha (GRO-α) | proliferated | significant increase | the highest | increased | significantly increased | 70% | high | 75% | excellent inhibitory effect | reduced the expression of all markers involved in necrosis | 76% | inhibited the expression of the necrosis markers in a concentration-dependent manner |
